This experiment deals with T1, Aspartate-semialdehyde dehydrogenase (MtASADH) (Mycobacterium tuberculosis, UniProt P9WNX5).
T1 construct: gene asd
The experiment can be described thus: SPR with MtASADH immobilized on CM5 chip; also IC50 […] in LysC-coupled NADPH enzyme assay. It is filed as binding.

pKd: −log10 of the molar value.

T1 sequence (P9WNX5 whole entry, looked up): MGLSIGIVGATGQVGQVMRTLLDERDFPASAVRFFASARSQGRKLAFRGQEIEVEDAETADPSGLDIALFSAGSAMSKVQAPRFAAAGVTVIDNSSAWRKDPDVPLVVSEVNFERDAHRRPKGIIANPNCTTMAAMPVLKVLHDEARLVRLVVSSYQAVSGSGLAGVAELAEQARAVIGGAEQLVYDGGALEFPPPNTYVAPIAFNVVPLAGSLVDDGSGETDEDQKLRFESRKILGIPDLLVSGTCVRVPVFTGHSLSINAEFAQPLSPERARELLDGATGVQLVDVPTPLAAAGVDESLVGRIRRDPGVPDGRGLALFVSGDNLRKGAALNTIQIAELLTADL

`O=C(Nc1nnc(C2CCCO2)o1)c1ccc([N+](=O)[O-])o1` (stereo not shown) [IMB-XMA0038, 5-nitro-N-(5-(tetrahydrofuran-2-yl)-1,3,4-oxadiazol-2-yl)furan-2-carboxamide] gave a pKd of 3.44.

Values taken from publication PMC8648042, “IMB-XMA0038, a new inhibitor targeting aspartate-semialdehyde dehydrogenase of Mycobacterium tuberculosis” (Emerging Microbes & Infections, 2021).
